Laboratory results reported in ChEMBL document CHEMBL3352125, “Cytotoxic activity of substituted chalcones in terms of molecular electronic properties” (Bioorg Med Chem Lett, 2014).
pIC50: −log10 of the molar value.

Columns and labels:
Assay type in all cases: functional, cell-based
[1] = Cytotoxicity against human NALM6 cells by MTT assay; conditions: NALM-6
[2] = Cytotoxicity against human WM115 cells by MTT assay; conditions: WM-115
[3] = Cytotoxicity against human HL60 cells by MTT assay; conditions: HL-60

| Compound | pIC50 [1] | pIC50 [2] | pIC50 [3] |
| --- | --- | --- | --- |
| O=C1CCOc2ccccc21 [CHROMANONE] | 5.09 | 4.27 | 4.72 |
| COc1ccc(/C=C/C(=O)c2ccccc2O)cc1 | 4.30 | 4.22 | 4.31 |
| O=C(/C=C/c1ccc(Br)cc1)c1ccccc1O | 5.17 | 4.30 | 5.14 |
| O=C(/C=C/c1ccccc1)c1ccccc1 [CHALCONE] | 4.62 | 4.37 | 4.26 |
| O=C(/C=C/c1ccc(O)cc1)c1ccccc1O | 4.39 | 4.16 | 5.15 |
| O=C(/C=C/c1ccc(Cl)cc1)c1ccccc1O | 5.03 | 4.31 | 5.08 |
| O=C(/C=C/c1ccccc1)c1cc(O)ccc1O | 5.26 | 4.21 | 5.28 |
| O=C(/C=C/c1ccccc1)c1ccc(O)cc1O [2',4'-DIHYDROXYCHALCONE] | 4.74 | 4.38 | 5.20 |
| O=C(/C=C/c1ccccc1Cl)c1ccccc1O | 5.21 | 5.12 | 5.11 |
| O=C(/C=C/c1ccccc1)c1ccccc1O [2'-HYDROXYCHALCONE] | 4.43 | 4.39 | 4.74 |
| COc1cc(/C=C/C(=O)c2ccccc2O)cc(OC)c1OC | 4.50 | 4.25 | 4.41 |
| O=C(/C=C/c1ccc([N+](=O)[O-])cc1)c1ccccc1O | 5.16 | 4.56 | 5.24 |
